Reference: patent US9951024B2, “Small-molecule inhibitors targeting G-protein-coupled Rho guanine nucleotide exchange factors” (Children's Hospital Medical Center, priority 2013, dated 2018)
pIC50: −log10 of the molar value.

Key:
RhoA-LARG interaction = target: T1, RhoA-LARG interaction (Homo sapiens, UniProt Q9NZN5); assay: In vitro complex formation assay, LARG binding to RhoA; details: for inhibition at 100 µM: read-out: Relative binding inhibition, %
T1 construct: human LARG (residues 765-1,138); made in house; host or cells: E. coli BL21 (DE3) (LARG), E. coli DH5α (GST-RhoA)
T1 sequence (Q9NZN5 765-1138 limits assumed): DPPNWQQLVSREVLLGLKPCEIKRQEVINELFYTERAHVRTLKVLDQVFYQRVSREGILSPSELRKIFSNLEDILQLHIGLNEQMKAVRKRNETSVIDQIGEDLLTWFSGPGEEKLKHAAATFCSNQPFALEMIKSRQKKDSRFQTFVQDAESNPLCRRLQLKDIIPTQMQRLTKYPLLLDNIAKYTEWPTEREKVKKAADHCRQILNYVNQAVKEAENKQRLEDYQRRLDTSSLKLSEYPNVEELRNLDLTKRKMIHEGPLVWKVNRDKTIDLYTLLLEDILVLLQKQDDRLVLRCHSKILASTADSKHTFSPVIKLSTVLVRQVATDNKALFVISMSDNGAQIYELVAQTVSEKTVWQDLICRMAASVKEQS
Procedure: About 1 μg of (His)6-tagged LARG DH-PH was incubated with 1 μg of EDTA-treated GSTRhoA or Cdc42 or GST alone in a binding buffer [20 mM Tris.HCl (pH 7.6), 100 mM NaCl, 1% BSA, 1% Triton X-100, 1 mM MgCl2] containing 15 μL of suspended glutathione-agarose beads. Y16 or other chemicals were added in the incubation buffer at the indicated concentrations. After an incubation at 4° C. for 1 h under constant agitation, the glutathione beads were washed twice with the binding buffer. The amount of (His)6-tagged protein coprecipitated with GST-fusion bound beads was detected by anti-His Western blotting. Similarly, cell lysates containing myc-Tiam1, (His)6-Cdc42, (His)6-TrioN, or (His)6-RhoA were mixed with purified GST-Rac1, GST-Cdc42, GST-mDia, GST-PKN, GSTROCKII, GST-p190GAP, or GST alone, and pairwise association was assessed in the presence or absence of indicated amount of Y16 and/or Rhosin.
The information in FIG. 4 was obtained by the following procedures. (A) Dose-dependent specific inhibition of LARG binding to RhoA by Y16, G04, or G04+Y16 combination at varying concentrations. (B) NIH 3T3 cells were treated with Y16, G04, or G04+Y16 combination at the indicated concentrations for 24 h in serum-free media. Cells were subsequently stimulated with 10% calf serum for 15 min and were subjected to GST-Rhotekin effector domain pull-down assays, and the activities of RhoA were examined. Relative amounts of GTP-bound form of the GTPases were quantified by densitometry measurements and normalized to those of the unstimulated cells. (C) NIH 3T3 cells were treated with Y16, G04, or G04+Y16 combination at the indicated concentrations for 24 h in serum-free media. Cells were subsequently stimulated with 10% calf serum for 15 min and were subjected to GST-Rhotekin and GST-PAK1 effector domain pull-down assays, and the activities of RhoA, Cdc42, and Rac1 were examined. Relative amounts of GTP-bound form of the GTPases were quantified by densitometry measurements and normalized to those of the nontreated cells. (D) NIH 3T3 cells were treated with Y16, G04, or G04+Y16 combination of the indicated concentrations in serum-free DMEM medium prior to stimulation with LPA (20 ng/mL) for 10 min. The cells were stained with rhodamine-phalloidin to reveal F-actin structures.
The inhibitory effects of the analogs were tested in a complex formation assay. (His)6-tagged LARG PH-DH (1 μg) was incubated with GST alone or GST-RhoA conjugated with glutathione agarose beads in the presence or absence of 100 μM indicated compounds. After an incubation at 4° C. for 1 h, the beads-associated (His)6-LARG PH-DH was detected by anti-His Western blotting. The relative inhibition of each analog was normalized to the inhibitory effect of Y16 of the same concentration.

RhoA = RhoA (Homo sapiens, UniProt P61586); details: reference 26; cited from earlier work
RhoA, sequence (P61586 whole entry): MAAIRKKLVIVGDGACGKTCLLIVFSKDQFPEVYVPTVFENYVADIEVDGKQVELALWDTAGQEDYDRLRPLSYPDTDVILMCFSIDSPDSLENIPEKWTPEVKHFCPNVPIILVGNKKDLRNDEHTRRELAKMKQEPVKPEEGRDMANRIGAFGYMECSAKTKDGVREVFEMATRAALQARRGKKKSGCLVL

RhoA-GTP [1] = assay: RhoA activity in MCF7-derived mammospheres; assay type: cell-based; details: alone at 10 μM
Procedure: The information in FIG. 5 was obtained by the following procedures. (A) Y16, G04, or G04+Y16 combination inhibits MCF7 breast cell growth. MCF7 cells were plated at 1.5×10^4/24 well in the presence of Y16, G04, or G04+Y16 combination. Cell numbers were determined at the indicated times. (B) MCF7 cells were subjected migration assays in the presence of Y16, G04, or G04+Y16 combination. (C) The invasive activities were assayed in a Matrigel-coated transwell. (D) Y16, G04, or G04+Y16 combination inhibits RhoA and its downstream signaling activities in MCF7-derived mammospheres. (Upper) MCF7-derived mammospheres were treated with Y16, G04, or G04+Y16 combination at the indicated concentrations. Spheres were collected, and the RhoA activity was examined. Relative amounts of GTP-bound form of RhoA were quantified by densitometry measurements and normalized to those of the untreated cells. (Lower) Western blots are of p-MLC of MCF7-derived mammospheres. Y16, G04, or G04+Y16 combination inhibits MCF-7 cell-derived mammosphere formation. (E) MCF-7 cells were treated with Y16, G04, or G04+Y16 combination at the indicated concentrations for 24 h in serum-free media. MCF7 cells were dissociated to single cells with trypsin and cultured for 10 d at the density of 2×10^4/mL in suspension in the media containing G04 or Y16 at the indicated concentration. Photographs were taken after a 10-d culture. […]

RhoA-GTP [2] = assay: Endogenous Rho GTPase activity assay, RhoA-GTP in NIH 3T3 cells; assay type: cell-based; details: Mus musculus, NIH3T3, serum stimulated, acting alone at 30 μM, read-out: inhibition of RhoA-GTP content
Procedure: The information in FIG. 3 was obtained by the following procedures. (A and B) NIH 3T3 cells were treated with Y16 at the indicated concentrations for 24 h in serum-free media. Cells were subsequently stimulated with 10% calf serum for 15 min and were subjected to GST-Rhotekin or GST-PAK1 effector domain pull-down assays, and the activities of RhoA, Cdc42, and Rac1 were examined. Relative amounts of GTP-bound form of the GTPases were quantified by densitometry measurements and normalized to those of the unstimulated cells. […]
NIH 3T3 cells, MCF7 cells, or HME cells were grown in log phase in a 10-cm dish or a six-well dish, and were starved in serum-free medium in the presence or absence of Y16 at indicated concentrations for 24 h and were subsequently stimulated with 10% calf serum or FBS for 15 min. […] Lysates were clarified, the protein concentrations were normalized, and the GTP-bound RhoA, Rac1, or Cdc42 in the lysates were measured by respective anti-RhoA, Rac1, and Cdc42 Western blotting of the effector domain pull downs.
The information in FIG. 4 was obtained by the following procedures. […] Relative amounts of GTP-bound form of the GTPases were quantified by densitometry measurements and normalized to those of the unstimulated cells. […] Relative amounts of GTP-bound form of the GTPases were quantified by densitometry measurements and normalized to those of the nontreated cells. […]

[3] = 100 μM compound, normalized to the inhibitory effect of Y16 of the same concentration

inhibition at 100 µM (RhoA-LARG interaction; [3]) | SMILES | also measured
6.75% | O=C1NN(c2ccccc2)C(=O)/C1=C\C1=NCc2ccccc21 [Compound 3] | 
 | N[C@H](Cc1c[nH]c2ccccc12)C(=O)N/N=C/c1ccc2nccnc2c1 [Compound G04, (2R)-2-amino-3-(1Hindol-3-yl)-N′-[(1E)-quinoxalin-6-ylmethylidene]propanehydrazide] | binding affinity to RhoA (RhoA): micromolar; pIC50 (RhoA-LARG interaction; inhibitors alone or combined together, read-out: IC50 for inhibition of RhoA binding to LARG): ~5.00; inhibition at 10 µM (RhoA-GTP [1]): ~50%; inhibition at 30 µM (RhoA-GTP [2]): ~80%
13% | COc1cc(/C=C2/C(=O)NN(c3ccccc3)C2=O)ccc1O [Compound 2] | 
27.1% | O=C1NN(c2ccccc2)C(=O)/C1=C/c1ccc(OCc2ccccc2)cc1 [Compound 1] | Relative binding inhibition, % (RhoA-LARG interaction; 100 μM compound, normalized to the inhibitory effect of Y16 of the same concentration, 100 µM): 27.12%
13.8% | COc1cc(/C=C2/C(=O)NN(c3ccccc3)C2=O)cc(Br)c1OCCOc1ccc(C)cc1 [Compound 4] | 
7.34% | O=C1/C(=C\c2ccccc2OCc2ccccc2)CNN1c1ccc(Br)cc1 [Compound 5] | 
